The test system of data set [1] is SARS-CoV-2 KCDC03 strain. The class given is in vivo, Syrian hamsters.
The conditions of data set [2]: mouse, in vivo, ip.

`CN(C)C(=O)Nc1cccc(-c2ccc(N(C)C)cc2)c1` [Atglistatin]: the gross lung lesions entry in data set [1] ([…], different concentrations (20, 40, 80 mg kg^-1 d^-1)) is “improved gross lung lesions in a dose-dependent manner”. Moreover, in data set [1] (hamster, in vivo), the “FFA and glycerol release from LDs in lungs” value is “inhibition of FFA and glycerol release”; the “IFN-α and IFN-β production” value is on record as “no effect”; the “levels of TNF-α, IL-6, and MCP-1” value is given as “reduced”; the “reduction in lung lesions” value is 72%.

In the case of `COc1nn(-c2ccc(NC(=O)OCc3ccccc3)c(C)c2)c(=O)o1` [CAY10499], the “overt signs of toxicity, including loss of body weight” value in data set [2] is recorded as “did not induce any overt signs of toxicity”.

The record behind these values is paper PMC9575645 (Signal Transduction and Targeted Therapy, 2022).
